{"source": "patent EP4759810A1", "about": "“PROTAC TARGETING BCL-XL PROTEIN AND USE THEREOF” (BEIJING SUNCELL BIO-MEDICAL CO., LTD., priority 2023, dated 2025)", "key": {"[1]": {"system": "MRC5 cells", "assay": "Senescent cell killing activity test, MRC5 cell model (CCK-8)", "assay_type": "cell-based, human", "experimental": "(§1) To avoid replication of the induced senescent cells, low-passage proliferating HEF cells (<10 passages), MRC5 cells (<6 passages), and BJ cells (<10 passages) were used as normal controls. For chemical drug induced senescence, HEF cells were treated with 10 µM etoposide (Selleck, S1225) for 36-48 hours, MRC5 cells were treated with 5 µM bleomycin (Selleck, S1225) for 72 hours, and BJ cells were treated with 10 µg/mL bleomycin for 72 hours. Three days after the treatment, the cells were subcultured in fresh culture medium at a 1:3 ratio for 72 hours before further analysis and use.\n(§2) Non-senescent and induced-senescent HEF cells, non-senescent and induced-senescent MRC5 cells, and non-senescent and induced-senescent BJ cells were respectively digested with trypsin, and centrifuged at 1000 rpm for 5 minutes. Then, the supernatant was removed, and the cells were resuspended in fresh DMEM culture medium containing 10% fetal bovine serum for counting. The cell density was adjusted so that the non-senescent cell density was 4000 cells/100 µL and the senescent cell density was 7000 cells/100 µL. 100 µL of the cell suspension was added to each well of a 96-well transparent cell culture plate. It was noted that the edge wells of the 96-well plate were not used as testing wells, and 300 µL of PBS alone was added to these wells to reduce evaporation of the culture medium. The 96-well plates with the well-plated cells were placed back in a 37°C incubator for overnight culture until the cells adhered. On the next day, the small molecule compounds to be tested were prepared and added after the cells had adhered.\n(§3) A series of small molecule concentration gradients (0.01, 0.03, 0.1, 0.3, 1, 3, 10, and 25 µM) were pre-set, and a series of 2× drug dilutions for the above concentrations were prepared in DMEM culture medium containing 10% fetal bovine serum. 100 µL of the above DMEM culture medium containing the gradient concentrations of the drug was added to each well of the 96-well plate that had been well-plated with cells, so that the final drug concentration in each well was the pre-set series of concentrations. Three replicate wells were used for each test drug concentration. The 96-well plates were placed back in a 37°C incubator, and cell viability was measured after three days.\n(§4) Three days after adding the drug, the plates were taken out, and the supernatant was discarded. 100 µL of pre-prepared CCK-8 working solution was added to each well. The CCK-8 working solution was obtained through diluting a CCK-8 stock solution (C0041, Beyotime) with a serum-free DMEM culture medium by 10-fold volumn. The 96-well plates containing the CCK-8 working solution were placed back in the 37°C incubator and incubated for 0.5-2 hours. The plates were then taken out, and the absorbance value (OD value) of each well was measured at a wavelength of 450 nm. The cell viability in each experimental group was calculated according to the following formula: Relative cell viability (%) = (Blank control group - Experimental group) / Blank control group × 100%."}, "[2]": {"system": "BJ cells", "assay": "Senescent cell killing activity test, BJ cell model (CCK-8)", "assay_type": "cell-based, human", "conditions": "Figures 3M-3O", "experimental": "as §1, §2, §3, §4"}}}
{"smiles": "O=C1CCN(c2ccc(N3CCC(CN4CCN(CC#Cc5ccc(OCCCc6ccc(N7CCc8cccc(C(=O)Nc9nc%10ccccc%10s9)c8C7)nc6C(=O)O)c(F)c5)CC4)CC3)cc2)C(=O)N1", "note": "[APQ10]", "values": [{"measurement": "activity for killing senescent cells at lower concentrations compared to A-1331852", "setting": "[1]; 0.01 µM and 0.03 µM", "result": "superior to that of A-1331852"}, {"measurement": "selectivity for senescent cells", "setting": "[1]; Figures 3G-3L", "result": "better selectivity for senescent cells"}, {"measurement": "killing effects for senescent cells", "setting": "[2]; bleomycin-induced senescent skin-derived BJ cell model", "result": "highly selective and potent killing effects for senescent cells"}, {"measurement": "killing effect for the normal early-passage BJ cells", "setting": "[2]; normal BJ cells", "result": "without significant killing effect for the normal early-passage BJ cells"}]}
